In patent US20250000069A1, “ANTHELMINTIC LABORATORY ANIMAL MODEL FOR HEARTWORM” (priority 2019, published 2025):
Where “and” joins values, the source holds several entries; their conditions need not be identical. Identical values can stand only once.

Legend:
[1] = test system: D. immitis (UGA susceptible strain); assay: Dog (oral) heartworm model, compiled dose correlation data; type: in vivo
[2] = test system: D. immitis (Michigan susceptible strain); assay: Rat (SQ) heartworm model, compiled dose correlation data; type: in vivo
[3] = test system: D. immitis (Michigan strain); assay: Efficacy of compounds in the D. immitis immunosuppressed rat model (third study, subcutaneous dosing); type: in vivo
D. immitis JYD-34 strain = assay: Oral moxidectin in immunosuppressed rats infected with JYD-34 strain; type: in vivo, rat; conditions: for Mean worm counts: geometric mean
[4] = test system: D. immitis ZoeMI-01 (ZM1) strain; assay: Oral moxidectin in immunosuppressed rats infected with ZoeMI-01 strain; type: in vivo, rat; conditions: for Mean worm counts: geometric mean
[5] = rat, in vivo
[6] = SQ 1 μg/kg, dosed month 1 post-inoculation
[7] = rat, SC 1.00 mg/kg day 30 post-inoculation, necropsy day 112-114
[8] = rat, SC 5.00 mg/kg day 30 post-inoculation, necropsy day 112-114
[9] = oral 3 μg/kg day 28, necropsy day 120
[10] = oral 3 μg/kg days 28, 56, 84, necropsy day 120
[11] = oral 12 μg/kg day 28, necropsy day 120
[12] = oral 24 μg/kg day 28, necropsy day 120
[13] = n = 4, oral 3 μg/kg day 28, necropsy day 120
[14] = n = 4, oral 3 μg/kg days 28, 56, 84, necropsy day 120
[15] = n = 4, oral 24 μg/kg day 28, necropsy day 120
[16] = rat, SC 0.001 mg/kg day 30 post-inoculation, necropsy day 112-114
[17] = rat, SC 0.003 mg/kg day 30 post-inoculation, necropsy day 112-114

## CC(C)C[C@H]1C(=O)O[C@H](Cc2ccc(N3CCOCC3)cc2)C(=O)N(C)[C@@H](CC(C)C)C(=O)O[C@H](C)C(=O)N(C)[C@@H](CC(C)C)C(=O)O[C@H](Cc2ccc(N3CCOCC3)cc2)C(=O)N(C)[C@@H](CC(C)C)C(=O)O[C@H](C)C(=O)N1C [EMO, emodepside]
[1]; oral 1 μg/kg, dosed month 1 post-inoculation
  % Efficacy: 58%
[1]; oral 3 μg/kg, dosed month 1 post-inoculation
  % Efficacy: 88%
[1]; oral 5 μg/kg, dosed month 1 post-inoculation
  % Efficacy: 97%
[1]; oral 10 μg/kg, dosed month 1 post-inoculation
  % Efficacy: 97%
[2]; [6]
  % Efficacy: 76%
[2]; SQ 5 μg/kg, dosed month 1 post-inoculation
  % Efficacy: 100%
[3]; arithmetic mean, rat, SC 1.00 mg/kg day 30 post-inoculation, necropsy day 112-114
  Mean worm count (range): 1.8
[3]; arithmetic mean, rat, SC 5.00 mg/kg day 30 post-inoculation, necropsy day 112-114
  Mean worm count (range): 0
[3]; rat model, dose not stated
  prevention of heartworm: 100%
[3]; [7]
  # rats with infection (n = 6): 3
  % Efficacy: 75.6%
[3]; [8]
  # rats with infection (n = 6): 0
  % Efficacy: 100%
[3]; rat, in vivo, sc, 1 mg/kg
  # of Ag+: 1
[3]; rat, in vivo, sc, 5 mg/kg
  # of Ag+: 1

## CC[C@H](C)[C@H]1O[C@]2(CC[C@@H]1C)C[C@@H]1C[C@@H](C/C=C(\C)[C@@H](O[C@H]3C[C@H](OC)[C@@H](O[C@H]4C[C@H](OC)[C@@H](O)[C@H](C)O4)[C@H](C)O3)[C@@H](C)/C=C/C=C3\CO[C@@H]4[C@H](O)C(C)=C[C@@H](C(=O)O1)[C@]34O)O2 [IVM, ivermectin]
[1]; in vivo, po
  % Efficacy: 53% and 83-97% and 98% and 100% and 64%
[2]; in vivo
  % Efficacy: 89% and 97-100% and 100%
[3]; rat, in vivo
  efficacy: 96.5%
[3]; rat, in vivo, sc, 0.001 mg/kg
  # of Ag+: 2
  # rats with infection (n = 6): 5
  % Efficacy: 89.3%
  Mean worm count (range): 0.8
[3]; rat, in vivo, sc, 0.003 mg/kg
  # of Ag+: 2
  # rats with infection (n = 6): 1
  % Efficacy: 96.5%
  Mean worm count (range): 0.3

## CO/N=C1\C[C@]2(C[C@@H]3C[C@@H](C/C=C(\C)C[C@@H](C)/C=C/C=C4\CO[C@@H]5[C@H](O)C(C)=C[C@@H](C(=O)O3)[C@]45O)O2)O[C@H](/C(C)=C/C(C)C)[C@H]1C [MOX, moxidectin]
[1]; oral 0.5 μg/kg, dosed month 2 post-inoculation
  % Efficacy: 100%
[1]; oral 0.625 μg/kg, dosed month 2 post-inoculation
  % Efficacy: 100%
[1]; oral 1.25 μg/kg, dosed months 1, 2 post-inoculation
  % Efficacy: 100%
D. immitis JYD-34 strain; [9]
  Mean worm counts: 6.0
  % Efficacy: 0%
D. immitis JYD-34 strain; [10]
  Mean worm counts: 2.4
  % Efficacy: 38%
D. immitis JYD-34 strain; [11]
  Mean worm counts: 2.8
  % Efficacy: 28%
D. immitis JYD-34 strain; [12]
  Mean worm counts: 0.5
  % Efficacy: 87%
D. immitis JYD-34 strain; n = 4, one rat died pre-necropsy, oral 12 μg/kg day 28, necropsy day 120
  Number of rats infected: *3
D. immitis JYD-34 strain; [13]
  Number of rats infected: 4
D. immitis JYD-34 strain; [14]
  Number of rats infected: 4
D. immitis JYD-34 strain; [15]
  Number of rats infected: 1
[2]; [6]
  % Efficacy: 92%
[2]; SQ 3 μg/kg, dosed month 1 post-inoculation
  % Efficacy: 100%
[3]; arithmetic mean, rat, SC 0.001 mg/kg day 30 post-inoculation, necropsy day 112-114
  Mean worm count (range): 0.67
[3]; arithmetic mean, rat, SC 0.003 mg/kg day 30 post-inoculation, necropsy day 112-114
  Mean worm count (range): 0
[3]; rat model, at their use-dose
  efficacy: 100%
[3]; [16]
  # rats with infection (n = 6): 4
  % Efficacy: 91.7%
[3]; [17]
  # rats with infection (n = 6): 0
  % Efficacy: 100%
[3]; rat, in vivo, sc, 0.001 mg/kg
  # of Ag+: 1
[3]; rat, in vivo, sc, 0.003 mg/kg
  # of Ag+: 0
[4]; [9]
  Mean worm counts: 1.1
  % Efficacy: 81%
[4]; [10]
  Mean worm counts: 0
  % Efficacy: 100%
[4]; [11]
  Mean worm counts: 0
  % Efficacy: 100%
[4]; [12]
  Mean worm counts: 0
  % Efficacy: 100%
[4]; [13]
  Number of rats infected: 3
[4]; [14]
  Number of rats infected: 0
[4]; n = 4, oral 12 μg/kg day 28, necropsy day 120
  Number of rats infected: 0
[4]; [15]
  Number of rats infected: 0

## CC(=O)OCC(=O)[C@@]1(O)CC[C@H]2[C@@H]3CCC4=CC(=O)CC[C@]4(C)[C@H]3[C@@H](O)C[C@@]21C [hydrocortisone, hydrocortisone acetate]
[5]
  mortality: increased incidence of mortality
